From patent USRE43879E1, “Use of the dextrogyral enantiomer of milnacipran for the preparation of a drug” (priority 2003, dated 2012)

Legend:
primary rat hepatocytes [1] = test: Safe-Hit genomic test of predictive toxicology (Toxicity Index) on primary rat hepatocytes; format: cell-based; settings: 16 h
Description: After treatment of the primary rat hepatocytes in culture, the RNA was extracted in order to generate labelled complementary-DNA probes which were then hybridised on a membrane containing 682 alternatively-spliced fragments specific to cell stress. A Toxicity Index was obtained for each of the products by comparing the hybridisation profile of the treated cells with that of the untreated cells.
Safe-Hit allows molecules within a chemical series to be ranked according to a Toxic Index, determined after the following basic steps (systematically performed in duplicate for each product): • treatment of the cells lines with the various products at three different concentrations, deduced from a preliminary cytotoxicology test (MTT-assay): a reference concentration corresponding to 80% cell viability, a concentration 10-fold higher—when possible—and a concentration 10-fold lower, • preparation of total RNA and of the corresponding radio-labelled cDNA probes, • hybridisation of the cDNA probes: the Safe-Hit macroarray contains 682 independent clones, corresponding to alterations in gene splicing induced by overexpression of WTp53 (p53 is the most ubiquitous “mediator” of cell stress, chosen for the development of this methodology), • acquisition and determination of the Toxicity Index. 4.1.2. Cells
The cells used in the study (preliminary MTT-assay of cytotoxicity and the main test) are cryopreserved hepatocytes from Sprague-Dawley rats in primary culture (batches Hep184005 and Hep184006-Biopredic), cultured under standard conditions.
The cells are seeded and cultured for 16 hours with each product, at the three concentrations chosen on the basis of the preliminary MTT-assay; two controls (untreated cells in solvent alone) are added to the series.
The results of the two Safe-Hit analyses are then compared and combined to assess the potential toxicity of the various compounds tested. Two parameters that can be modified by the user are involved in the calculation of the Toxicity Index: • Background Threshold (BT) smoothes out weak signals, close to background noise and not attributable to significant gene expression. […] The value of this parameter is usually 2 or less than 2 in order to obtain relevant results. […]
Toxicity Indices (TI) were determined as described above. […] Two separate analyses were performed using two levels of differentiation (Induction Factor-IF) in relation to the untreated controls: • a factor of at least 1.7 in relation to the untreated controls. This factor of 1.7 times represents the weakest value that allows an index not to be obtained in relation to the two untreated controls. • a factor of at least 2 in relation to the untreated controls. This factor of 2 times allows the most robust signals to be taken into account. 4.3.1. Induction Factor of 1.7 in Relation to Untreated Control (Table 7)

primary rat hepatocytes [2] = test: Cytotoxicity test (MTT-assay) on primary rat hepatocytes; format: cell-based; settings: 16 hours
Procedure: The […] and […] compounds, enantiomers of the racemic molecule […], as well as clomipramine, a reference product, (coded […] in the study) were assessed in the present study. The two enantiomers, […] and […], were first assessed in a preliminary cytotoxicity text (MTT-assay) on primary rat hepatocytes, in order to select the three concentrations to be used in the final test. The cells used in the study (preliminary MTT-assay of cytotoxicity and the main test) are cryopreserved hepatocytes from Sprague-Dawley rats in primary culture (batches Hep184005 and Hep184006-Biopredic), cultured under standard conditions. […] Formazan is solubilised in an organic solvent and the solution obtained can be measured by spectrophotometry. The absorbance measured is proportional to the number of surviving cells. The cells are put into contact with the product to be tested at […] (0-1-10-25-50 and 100 μM) for 16 hours. After this period of exposure, an MTT solution (0.5 mg/ml in the incubation medium of the primary hepatocytes) is added for 3 hours. After solubilisation of the formazan crystals, the multi-well plates are read with a spectrophotometer at 500 nm in order to determine the percentage of cell viability. These assays were performed in triplicate on primary rat hepatocytes exposed for 16 hours.

CN(C)CCCN1c2ccccc2CCc2ccc(Cl)cc21 [C218, clomipramine]
Clone A09 (H. sapiens mitochondrion, 12S), regulation factor vs untreated control (primary rat hepatocytes [1]; 1 μM): 2.90
Clone AA11 (H. sapiens Repeat sequence AluJb fragment inserted into a cDNA coding for an unknown protein), regulation factor vs untreated control (primary rat hepatocytes [1]; 1 μM): 0.38
Clone AC13 (H. sapiens 7S RNA L gene), regulation factor vs untreated control (primary rat hepatocytes [1]; 1 μM): 0.28
Clone C01 (H. sapiens mitochondrion, 16S), regulation factor vs untreated control (primary rat hepatocytes [1]; 1 μM): 1.93
Clone T08 (H. sapiens mRNA for KIAA1185 protein), regulation factor vs untreated control (primary rat hepatocytes [1]; 1 μM): 0.35
Clone U04 (H. sapiens translation initiation factor elF-2alpha mRNA), regulation factor vs untreated control (primary rat hepatocytes [1]; 1 μM): 0.48
Clone X02 (unk), regulation factor vs untreated control (primary rat hepatocytes [1]; 1 μM): 0.36
Clone X06 (H. sapiens Genomic sequence from 9q34), regulation factor vs untreated control (primary rat hepatocytes [1]; 1 μM): 0.23
Clone Z13 (unk), regulation factor vs untreated control (primary rat hepatocytes [1]; 1 μM): 0.34
Clone A09 (H. sapiens mitochondrion, 12S), regulation factor vs untreated control (primary rat hepatocytes [1]; 10 μM): 2.23
Clone AA11 (H. sapiens Repeat sequence AluJb fragment inserted into a cDNA coding for an unknown protein), regulation factor vs untreated control (primary rat hepatocytes [1]; 10 μM): 0.27
Clone AC13 (H. sapiens 7S RNA L gene), regulation factor vs untreated control (primary rat hepatocytes [1]; 10 μM): 0.16
Clone B20 (H. sapiens chromosome 19, BAC CIT-B-191n6), regulation factor vs untreated control (primary rat hepatocytes [1]; 10 μM): 0.14
Clone B22 (H. sapiens Genomic sequence from 17), regulation factor vs untreated control (primary rat hepatocytes [1]; 10 μM): 0.17
Clone C01 (H. sapiens mitochondrion, 16S), regulation factor vs untreated control (primary rat hepatocytes [1]; 10 μM): 1.82
Clone E05 (H. sapiens DNA sequence from clone 740A11 on chromosome Xq22.2-23, part of COL4A5 gene), regulation factor vs untreated control (primary rat hepatocytes [1]; 10 μM): 0.22
Clone E21 (H. sapiens ribosomal protein S14 gene), regulation factor vs untreated control (primary rat hepatocytes [1]; 10 μM): 0.56
Clone M12 (H. sapiens mRNA; cDNA DKFZp564C1563), regulation factor vs untreated control (primary rat hepatocytes [1]; 10 μM): 0.16
Clone T08 (H. sapiens mRNA for KIAA1185 protein), regulation factor vs untreated control (primary rat hepatocytes [1]; 10 μM): 0.14
Clone U04 (H. sapiens translation initiation factor elF-2alpha mRNA), regulation factor vs untreated control (primary rat hepatocytes [1]; 10 μM): 0.22
Clone X02 (unk), regulation factor vs untreated control (primary rat hepatocytes [1]; 10 μM): 0.24
Clone X05 (H. sapiens microsomal epoxide hydrolase (EPHX) gene), regulation factor vs untreated control (primary rat hepatocytes [1]; 10 μM): 0.15
Clone X06 (H. sapiens Genomic sequence from 9q34), regulation factor vs untreated control (primary rat hepatocytes [1]; 10 μM): 0.15
Clone Z13 (unk), regulation factor vs untreated control (primary rat hepatocytes [1]; 10 μM): 0.29
Clone A09 (H. sapiens mitochondrion, 12S), regulation factor vs untreated control (primary rat hepatocytes [1]; 100 μM): 2.14
Clone AA11 (H. sapiens Repeat sequence AluJb fragment inserted into a cDNA coding for an unknown protein), regulation factor vs untreated control (primary rat hepatocytes [1]; 100 μM): 0.31
Clone AA13 (H. sapiens 18S rRNA gene), regulation factor vs untreated control (primary rat hepatocytes [1]; 100 μM): 1.79
Clone AC13 (H. sapiens 7S RNA L gene), regulation factor vs untreated control (primary rat hepatocytes [1]; 100 μM): 0.28
Clone B20 (H. sapiens chromosome 19, BAC CIT-B-191n6), regulation factor vs untreated control (primary rat hepatocytes [1]; 100 μM): 0.27
Clone B22 (H. sapiens Genomic sequence from 17), regulation factor vs untreated control (primary rat hepatocytes [1]; 100 μM): 0.32
Clone C01 (H. sapiens mitochondrion, 16S), regulation factor vs untreated control (primary rat hepatocytes [1]; 100 μM): 1.91
Clone E01 (H. sapiens mRNA for lipocortin II), regulation factor vs untreated control (primary rat hepatocytes [1]; 100 μM): 1.73
Clone E05 (H. sapiens DNA sequence from clone 740A11 on chromosome Xq22.2-23, part of COL4A5 gene), regulation factor vs untreated control (primary rat hepatocytes [1]; 100 μM): 0.35
Clone E19 (H. sapiens mitochondrion, cytochrome c oxidase subunit 1), regulation factor vs untreated control (primary rat hepatocytes [1]; 100 μM): 1.72
Clone E21 (H. sapiens ribosomal protein S14 gene), regulation factor vs untreated control (primary rat hepatocytes [1]; 100 μM): 0.58
Clone F24 (H. sapiens LIM homeobox protein cofactor (CLIM-1) mRNA), regulation factor vs untreated control (primary rat hepatocytes [1]; 100 μM): 0.52
Clone G01 (H. sapiens estrogen receptor-related protein (variant ER from breast cancer) mRNA), regulation factor vs untreated control (primary rat hepatocytes [1]; 100 μM): 2.04
Clone G05 (H. sapiens mitochondrion, cytochrome c oxidase subunit 1), regulation factor vs untreated control (primary rat hepatocytes [1]; 100 μM): 2.02
Clone G09 (H. sapiens mitochondrion, cytochrome b), regulation factor vs untreated control (primary rat hepatocytes [1]; 100 μM): 1.76
Clone I18 (H. sapiens 18S rRNA gene), regulation factor vs untreated control (primary rat hepatocytes [1]; 100 μM): 1.88
Clone L23 (H. sapiens cDNA NIH_MGC_16 clone IMAGE: 3350241 5′, mRNA sequence), regulation factor vs untreated control (primary rat hepatocytes [1]; 100 μM): 1.75
Clone M07 (H. sapiens mitochondrion, cytochrome c oxidase subunit 1), regulation factor vs untreated control (primary rat hepatocytes [1]; 100 μM): 1.75
Clone M12 (H. sapiens mRNA; cDNA DKFZp564C1563), regulation factor vs untreated control (primary rat hepatocytes [1]; 100 μM): 0.39
Clone Q11 (unk), regulation factor vs untreated control (primary rat hepatocytes [1]; 100 μM): 1.92
Clone S01 (Mus muculus TCR beta locus), regulation factor vs untreated control (primary rat hepatocytes [1]; 100 μM): 2.98
Clone T08 (H. sapiens mRNA for KIAA1185 protein), regulation factor vs untreated control (primary rat hepatocytes [1]; 100 μM): 0.22
Clone U04 (H. sapiens translation initiation factor elF-2alpha mRNA), regulation factor vs untreated control (primary rat hepatocytes [1]; 100 μM): 0.37
Clone X02 (unk), regulation factor vs untreated control (primary rat hepatocytes [1]; 100 μM): 0.31
Clone X05 (H. sapiens microsomal epoxide hydrolase (EPHX) gene), regulation factor vs untreated control (primary rat hepatocytes [1]; 100 μM): 0.24
Clone X06 (H. sapiens Genomic sequence from 9q34), regulation factor vs untreated control (primary rat hepatocytes [1]; 100 μM): 0.23
Clone Z13 (unk), regulation factor vs untreated control (primary rat hepatocytes [1]; 100 μM): 0.27
Clone Z20 (Homo sapiens cDNA wc44h09, similar to RAS_RELATED PROTEIN RAB-24, mRNA sequence), regulation factor vs untreated control (primary rat hepatocytes [1]; 100 μM): 0.57
Number of down-regulated clones (Down) (primary rat hepatocytes [1]; Induction Factor 1.7, 1 μM): 7
Number of up-regulated clones (Up) (primary rat hepatocytes [1]; Induction Factor 1.7, 1 μM): 2
Toxicity Index (TI, number of signatures) (primary rat hepatocytes [1]; Induction Factor 1.7, 1 μM): 9
Number of down-regulated clones (Down) (primary rat hepatocytes [1]; Induction Factor 1.7, 10 μM): 13
Number of up-regulated clones (Up) (primary rat hepatocytes [1]; Induction Factor 1.7, 10 μM): 2
Toxicity Index (TI, number of signatures) (primary rat hepatocytes [1]; Induction Factor 1.7, 10 μM): 15
Toxicity Index (TI, number of signatures) (primary rat hepatocytes [1]; Induction Factor 1.7, 50 μM): 28
Number of down-regulated clones (Down) (primary rat hepatocytes [1]; Induction Factor 1.7, 100 μM): 15
Number of up-regulated clones (Up) (primary rat hepatocytes [1]; Induction Factor 1.7, 100 μM): 13
Toxicity Index (TI, number of signatures) (primary rat hepatocytes [1]; Induction Factor 1.7, 100 μM): 28
Number of down-regulated clones (Down) (primary rat hepatocytes [1]; Induction Factor 2, 1 μM): 7
Number of up-regulated clones (Up) (primary rat hepatocytes [1]; Induction Factor 2, 1 μM): 1
Toxicity Index (TI, number of signatures) (primary rat hepatocytes [1]; Induction Factor 2, 1 μM): 8
Number of down-regulated clones (Down) (primary rat hepatocytes [1]; Induction Factor 2, 10 μM): 12
Number of up-regulated clones (Up) (primary rat hepatocytes [1]; Induction Factor 2, 10 μM): 1
Toxicity Index (TI, number of signatures) (primary rat hepatocytes [1]; Induction Factor 2, 10 μM): 13
Toxicity Index (TI, number of signatures) (primary rat hepatocytes [1]; Induction Factor 2, 50 μM): 16
Number of down-regulated clones (Down) (primary rat hepatocytes [1]; Induction Factor 2, 100 μM): 12
Number of up-regulated clones (Up) (primary rat hepatocytes [1]; Induction Factor 2, 100 μM): 4
Toxicity Index (TI, number of signatures) (primary rat hepatocytes [1]; Induction Factor 2, 100 μM): 16
Toxicity in MTT-assay (primary rat hepatocytes [2]; 25 μM): no toxicity was observed
Cell viability in MTT-assay (primary rat hepatocytes [2]; 50 μM): greater than 80%
Cytotoxicity / cell viability in MTT-assay (primary rat hepatocytes [2]; 100 μM): no cell viability was observed
